Assay [1] relates to VCaP. Description: Reduction in AR gene expression in AR positive human VCaP cells assessed as reduction in mRNA level at 100 nM measured after 6 hrs by qRT-PCT analysis relative to control. It counts as functional, cell-based.
In assay [2] the test system is VCaP. Briefly: Antiproliferative activity against AR positive human VCaP cells assessed inhibition of cell growth measured after 4 days by CellTiter-Glo Luminescent cell viability assay. It counts as functional, cell-based. Particulars: 96 h. For orientation: ATP-based viability assays read luminescence as a measure of living cells.
Assay [3] has as its system CWR22R. Briefly: Antiproliferative activity against AR positive human 22Rv1 cells assessed inhibition of cell growth measured after 4 days by CellTiter-Glo Luminescent cell viability assay. Particulars: 22Rv1, 96 h. It counts as functional, cell-based.
Assay [4] concerns LNCaP. Briefly: Antiproliferative activity against AR positive human LNCaP cells assessed inhibition of cell growth measured after 4 days by CellTiter-Glo Luminescent cell viability assay. Format: functional, cell-based. Particulars: 96 h.
Assay [5] has as its system VCaP. Description: Reduction in c-Myc gene expression in AR positive human VCaP cells assessed as reduction in mRNA level at 100 nM measured after 6 hrs by qRT-PCT analysis relative to control. It counts as functional, cell-based.
For assay [6], the system named is LNCaP. Briefly: Reduction in c-Myc gene expression in AR positive human LNCaP cells assessed as reduction in mRNA level at 100 nM measured after 6 hrs by qRT-PCT analysis relative to control. Format: functional, cell-based.
Assay [7] relates to LNCaP. Description: Reduction in AR gene expression in AR positive human LNCaP cells assessed as reduction in mRNA level at 100 nM measured after 6 hrs by qRT-PCT analysis relative to control. Format: functional, cell-based.
The test system of assay [8] is CWR22R. Description: Reduction in c-Myc gene expression in AR positive human 22Rv1 cells assessed as reduction in mRNA level at 100 nM measured after 6 hrs by qRT-PCT analysis relative to control. It counts as functional, cell-based.
The subject of assay [9] is CWR22R. Briefly: Reduction in AR gene expression in AR positive human 22Rv1 cells assessed as reduction in mRNA level at 100 nM measured after 6 hrs by qRT-PCT analysis relative to control. It counts as functional, cell-based.
The target of assay [10] is Bromodomain-containing protein 4 (Homo sapiens, UniProt O60885). Description: Binding affinity to BRD4 (unknown origin) by SPR assay. (In general: SPR reads the build-up and loss of mass on a sensor chip optically.)
Assay [11] relates to VCaP. Description: Reduction in KLK3 gene expression in AR positive human VCaP cells assessed as reduction in mRNA level at 1000 nM measured after 6 hrs by qRT-PCT analysis. It counts as functional, cell-based.
Assay [12] deals with VCaP. Briefly: Reduction in AR gene expression in AR positive human VCaP cells assessed as reduction in mRNA level at 1000 nM measured after 6 hrs by qRT-PCT analysis. Format: functional, cell-based.
In assay [13] the test system is VCaP. Briefly: Reduction in c-Myc gene expression in AR positive human VCaP cells assessed as reduction in mRNA level at 1000 nM measured after 6 hrs by qRT-PCT analysis. It counts as functional, cell-based.
Assay [14] deals with LNCaP. Description: Reduction in KLK3 gene expression in AR positive human LNCaP cells assessed as reduction in mRNA level at 1000 nM measured after 6 hrs by qRT-PCT analysis. Format: functional, cell-based.
The subject of assay [15] is LNCaP. Briefly: Reduction in AR gene expression in AR positive human LNCaP cells assessed as reduction in mRNA level at 1000 nM measured after 6 hrs by qRT-PCT analysis. It counts as functional, cell-based.
Assay [16] relates to LNCaP. Description: Reduction in c-Myc gene expression in AR positive human LNCaP cells assessed as reduction in mRNA level at 1000 nM measured after 6 hrs by qRT-PCT analysis. Format: functional, cell-based.
Assay [17] relates to CWR22R. Description: Reduction in KLK3 gene expression in AR positive human 22Rv1 cells assessed as reduction in mRNA level at 1000 nM measured after 6 hrs by qRT-PCT analysis. Format: functional, cell-based.
The test system of assay [18] is CWR22R. Description: Reduction in AR gene expression in AR positive human 22Rv1 cells assessed as reduction in mRNA level at 1000 nM measured after 6 hrs by qRT-PCT analysis. It counts as functional, cell-based.
Assay [19] deals with CWR22R. Briefly: Reduction in c-Myc gene expression in AR positive human 22Rv1 cells assessed as reduction in mRNA level at 1000 nM measured after 6 hrs by qRT-PCT analysis. Format: functional, cell-based.
Assay [20] relates to VCaP. Briefly: Antitumor activity against human VCaP cells xenografted in CB17 SCID mouse model assessed as tumor growth inhibition at 20 mg/kg, po qd scheduled 5 days in a week measured on day 63. Format: functional. Particulars: 1512 h, time 63 day, read-out: TGI.
The subject of assay [21] is VCaP. Description: Antitumor activity against human VCaP cells xenografted in CB17 SCID mouse model assessed as tumor growth inhibition at 30 mg/kg, po qd scheduled 5 days in a week measured on day 63. It counts as functional. The settings on record: 1512 h, time 63 day, read-out: TGI. Background: A xenograft is tissue or cells of one species grown in another, often human tumour cells in immunodeficient mice.

The target of assay [22] is T1, Protein cereblon/CREB-binding protein (Homo sapiens, UniProt Q92793+Q96SW2). Briefly: PROTAC activity at CBP/CRBN in human VCaP cells assessed as protein degradation incubated for 4 hrs by Western blot analysis. Format: cell-based.
In assay [23] the target is T1, Protein cereblon/CREB-binding protein. Description: PROTAC activity at CBP/CRBN in human VCaP cells assessed as maximal protein degradation at 1 uM incubated for 4 hrs by Western blot analysis relative to control. It counts as cell-based.
In assay [24] the target is T2, Protein cereblon/Histone acetyltransferase p300 (Homo sapiens, UniProt Q09472+Q96SW2). Briefly: PROTAC activity at p300/CRBN in human VCaP cells assessed as protein degradation incubated for 4 hrs by Western blot analysis. Format: cell-based.
Assay [25] addresses T2, Protein cereblon/Histone acetyltransferase p300. Briefly: PROTAC activity at p300/CRBN in human VCaP cells assessed as maximal protein degradation at 1 uM incubated for 4 hrs by Western blot analysis relative to control. It counts as cell-based.
Target sequence in this assay (Q09472 2-2414 limits assumed): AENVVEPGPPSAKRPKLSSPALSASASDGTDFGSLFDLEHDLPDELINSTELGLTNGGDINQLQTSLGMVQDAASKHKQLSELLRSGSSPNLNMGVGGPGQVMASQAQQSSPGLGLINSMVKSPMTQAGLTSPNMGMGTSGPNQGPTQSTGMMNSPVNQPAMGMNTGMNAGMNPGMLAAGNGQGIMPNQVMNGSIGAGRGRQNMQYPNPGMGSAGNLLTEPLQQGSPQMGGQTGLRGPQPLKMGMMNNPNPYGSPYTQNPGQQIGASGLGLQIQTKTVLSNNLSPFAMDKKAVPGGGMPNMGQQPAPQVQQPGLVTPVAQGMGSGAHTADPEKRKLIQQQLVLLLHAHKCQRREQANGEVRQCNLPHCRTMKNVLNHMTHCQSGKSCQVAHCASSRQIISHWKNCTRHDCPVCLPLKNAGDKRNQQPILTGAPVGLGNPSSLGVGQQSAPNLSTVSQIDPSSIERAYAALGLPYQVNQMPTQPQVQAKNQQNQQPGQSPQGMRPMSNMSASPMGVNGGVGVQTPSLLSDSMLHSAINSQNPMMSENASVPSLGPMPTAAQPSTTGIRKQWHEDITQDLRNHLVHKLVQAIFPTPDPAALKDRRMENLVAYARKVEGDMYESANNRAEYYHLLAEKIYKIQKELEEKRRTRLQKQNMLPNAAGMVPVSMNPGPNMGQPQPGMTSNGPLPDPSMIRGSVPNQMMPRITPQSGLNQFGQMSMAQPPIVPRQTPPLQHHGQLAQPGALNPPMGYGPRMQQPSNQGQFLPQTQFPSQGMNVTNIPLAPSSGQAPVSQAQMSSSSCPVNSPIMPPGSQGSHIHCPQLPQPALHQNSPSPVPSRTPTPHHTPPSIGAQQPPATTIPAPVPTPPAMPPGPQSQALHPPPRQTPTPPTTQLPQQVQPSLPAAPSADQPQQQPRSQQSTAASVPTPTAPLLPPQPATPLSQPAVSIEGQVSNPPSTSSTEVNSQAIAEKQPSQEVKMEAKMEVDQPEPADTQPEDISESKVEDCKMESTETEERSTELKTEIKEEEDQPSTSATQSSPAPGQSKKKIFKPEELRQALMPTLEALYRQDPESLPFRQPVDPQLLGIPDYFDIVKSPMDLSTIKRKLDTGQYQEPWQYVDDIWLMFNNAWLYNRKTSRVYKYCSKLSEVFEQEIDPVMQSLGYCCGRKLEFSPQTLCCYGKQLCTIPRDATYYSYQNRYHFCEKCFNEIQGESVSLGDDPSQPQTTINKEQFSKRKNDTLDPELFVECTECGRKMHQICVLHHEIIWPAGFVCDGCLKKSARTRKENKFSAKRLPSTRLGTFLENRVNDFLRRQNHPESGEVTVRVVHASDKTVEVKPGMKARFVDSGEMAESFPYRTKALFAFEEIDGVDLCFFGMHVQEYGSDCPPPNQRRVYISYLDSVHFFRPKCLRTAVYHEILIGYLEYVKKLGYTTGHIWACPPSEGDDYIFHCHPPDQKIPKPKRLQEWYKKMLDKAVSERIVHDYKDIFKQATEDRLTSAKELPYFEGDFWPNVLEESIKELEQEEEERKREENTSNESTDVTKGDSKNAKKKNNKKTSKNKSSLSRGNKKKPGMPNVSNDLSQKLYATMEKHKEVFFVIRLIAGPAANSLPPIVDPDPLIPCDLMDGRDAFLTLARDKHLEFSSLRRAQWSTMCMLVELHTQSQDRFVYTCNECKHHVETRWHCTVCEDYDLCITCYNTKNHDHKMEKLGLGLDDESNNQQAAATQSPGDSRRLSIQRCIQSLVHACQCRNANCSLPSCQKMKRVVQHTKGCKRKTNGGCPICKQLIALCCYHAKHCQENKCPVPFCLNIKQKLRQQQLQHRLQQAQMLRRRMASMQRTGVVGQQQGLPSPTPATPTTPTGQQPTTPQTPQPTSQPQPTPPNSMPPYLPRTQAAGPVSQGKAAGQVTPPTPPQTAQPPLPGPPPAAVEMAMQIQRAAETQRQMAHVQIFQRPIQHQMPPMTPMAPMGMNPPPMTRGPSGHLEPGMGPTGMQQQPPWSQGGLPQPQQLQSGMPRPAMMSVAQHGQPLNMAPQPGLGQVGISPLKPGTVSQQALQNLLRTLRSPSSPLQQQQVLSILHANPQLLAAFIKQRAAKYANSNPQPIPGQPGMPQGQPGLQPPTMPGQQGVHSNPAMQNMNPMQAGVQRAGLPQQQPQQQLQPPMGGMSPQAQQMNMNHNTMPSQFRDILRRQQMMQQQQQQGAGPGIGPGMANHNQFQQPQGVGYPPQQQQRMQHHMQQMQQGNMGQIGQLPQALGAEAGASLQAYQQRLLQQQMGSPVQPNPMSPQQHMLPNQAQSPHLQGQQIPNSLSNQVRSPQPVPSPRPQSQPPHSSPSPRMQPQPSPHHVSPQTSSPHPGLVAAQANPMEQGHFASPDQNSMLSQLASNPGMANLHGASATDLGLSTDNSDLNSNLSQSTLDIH
Target sequence in this assay (Q96SW2 whole entry partner): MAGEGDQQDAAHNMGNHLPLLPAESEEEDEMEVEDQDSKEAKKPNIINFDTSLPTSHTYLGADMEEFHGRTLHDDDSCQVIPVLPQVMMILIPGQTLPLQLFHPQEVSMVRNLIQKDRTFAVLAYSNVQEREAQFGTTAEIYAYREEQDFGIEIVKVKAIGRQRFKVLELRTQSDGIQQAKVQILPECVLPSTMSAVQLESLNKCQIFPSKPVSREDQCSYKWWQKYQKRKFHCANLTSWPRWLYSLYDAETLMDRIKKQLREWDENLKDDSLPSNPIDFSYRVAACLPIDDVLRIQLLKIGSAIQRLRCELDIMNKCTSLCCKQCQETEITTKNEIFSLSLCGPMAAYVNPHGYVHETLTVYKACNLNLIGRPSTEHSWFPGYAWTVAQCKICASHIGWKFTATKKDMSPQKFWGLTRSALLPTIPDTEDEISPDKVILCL
In assay [26] the target is T1, Protein cereblon/CREB-binding protein. Description: Potency index, ratio of […] DC50 to test compound DC50 for PROTAC activity at CBP/CRBN in human VCaP cells assessed as protein degradation incubated for 4 hrs by Western blot analysis. Format: cell-based.
In assay [27] the target is T2, Protein cereblon/Histone acetyltransferase p300. Description: Potency index, ratio of CPBD-409 DC50 to test compound DC50 for PROTAC activity at p300/CRBN in human VCaP cells assessed as protein degradation incubated for 4 hrs by Western blot analysis. Format: cell-based.
Target sequence in this assay (Q09472 2-2414 limits assumed): as the sequence (Q09472 2-2414 limits assumed) above
Target sequence in this assay (Q96SW2 whole entry partner): as the sequence (Q96SW2 whole entry partner) above

Activity calls are given as the source filed them. The rule behind the calls is not given here.

As to `N#Cc1ccc(O[C@H]2CC[C@H](NC(=O)c3ccc(N4CCC(CN5CCN(c6cc7c(cc6F)C(=O)N(C6CCC(=O)NC6=O)C7=O)CC5)CC4)nn3)CC2)cc1Cl` (some centres not stated) [BAVDEGALUTAMIDE], the result in the assay with VCaP [1] and in the assay on VCaP [5] was Active. In addition, the half-maximal inhibitory concentration (IC50) (usually the concentration that gives 50% inhibition) in the assay with VCaP [2] is 219 nM; with CWR22R [3], 316 nM; in the assay on LNCaP [4], 124 nM. The outcome in the assay on LNCaP [6], in the assay with LNCaP [7], in the assay with CWR22R [8] and in the assay with CWR22R [9] was inactive.
As to `CO[C@H]1CC[C@H](n2c([C@@H]3CCCC(=O)N3c3ccc(F)c(F)c3)nc3cc(-c4c(C)noc4C)ccc32)CC1` [INOBRODIB], in assay [10], the Kd (commonly the free concentration of one partner at which half of the binding sites on the other are occupied at equilibrium, for simple one-to-one binding) amounted to 222 nM. Besides, the IC50 in the assay on VCaP [2] came out at 53.6 nM; with CWR22R [3], 184 nM; in the assay with LNCaP [4], 412 nM. Further, the result with VCaP [11], in the assay with VCaP [12], in the assay on VCaP [13], in the assay with LNCaP [14], with LNCaP [15] and in the assay on LNCaP [16] was Active. Further, the outcome with CWR22R [17], in the assay on CWR22R [18] and with CWR22R [19] was Active. Besides, in the assay with VCaP [20], the inhibition in vivo at 20 mg/kg came out at 42%.
As for `CC(=O)N1CCc2c(c(N3CCCc4cc(-c5cnn(C)c5)c(C(F)F)cc43)nn2C2CCOCC2)C1`, the half-inhibitory concentration (IC50) is 216 nM in the assay with VCaP [2], greater than 1000 nM in the assay on CWR22R [3] and 7000 nM with LNCaP [4]. The result with VCaP [11], in the assay with VCaP [12], in the assay with VCaP [13], with LNCaP [14], in the assay with LNCaP [15] and with LNCaP [16] was Active. The result in the assay on CWR22R [17], in the assay on CWR22R [18] and with CWR22R [19] was Active. Also, the inhibition in vivo at 30 mg/kg in the assay on VCaP [21] came out at 46%.
As to `CC(=O)N1CCc2c(c(N3CCCc4cc(-c5cnn(C)c5)c(C(F)F)cc43)nn2[C@H]2CC[C@H](CN3CCN(c4cc5c(cc4F)C(=O)N(C4CCC(=O)NC4=O)C5=O)CC3)CC2)C1` (some centres not stated), the DC50 in assay [22] and in assay [24] was 1.2 nM each time. Also, the maximum response (Emax) in assay [23] and in assay [25] was 94% each time. Further, the Ratio in assay [26] and in assay [27] was 4 each time.
